Reference: ChEMBL document CHEMBL1770098, “Pyridine-derived thiosemicarbazones and their tin(IV) complexes with antifungal activity against Candida spp” (2011)
In brackets after ≈: the same amount, converted by molar mass.

Tests used:
Assay type in all cases: functional
[1] = tested on: Nakaseomyces glabratus; assay: Antifungal activity against Candida glabrata ATCC 90030 after 24 hrs; conditions: ATCC 90030, 24 h
[2] = tested on: Candida parapsilosis; assay: Antifungal activity against Candida parapsilosis […] after 24 hrs; conditions: Lodderomyces parapsilosis
[3] = tested on: Candida albicans; assay: Antifungal activity against Candida albicans ATCC 18804 after 24 hrs; conditions: ATCC 18804, 24 h
[4] = tested on: Pichia kudriavzevii; assay: Antifungal activity against Candida krusei ATCC 200298 after 24 hrs; conditions: ATCC 200298, 24 h

Molecule `Fc1ccccc1NC(=S)N/N=C(\c1ccccc1)c1ccccn1` has an MIC [1] of 11.4 µM (≈ 4 µg/mL), an MIC [2] of 45.7 µM (≈ 16 µg/mL) and an MIC [3] of 45.7 µM (≈ 16 µg/mL). It also gave an MIC [4] of 45.7 µM (≈ 16 µg/mL).
For `S=C(N/N=C(\c1ccccc1)c1ccccn1)Nc1ccccc1Cl`, the MIC [1] was 21.8 µM (≈ 8 µg/mL), the MIC [2] was 43.6 µM (≈ 16 µg/mL) and the MIC [3] was 21.8 µM (≈ 8 µg/mL). The MIC [4] was 21.8 µM (≈ 8 µg/mL).
Work on `OC(Cn1cncn1)(Cn1cncn1)c1ccc(F)cc1F` [FLUCONAZOLE] yielded an MIC [1] of 6.53 µM (≈ 2 µg/mL), an MIC [2] of 6.53 µM (≈ 2 µg/mL) and an MIC [3] of 6.53 µM (≈ 2 µg/mL). It also gave an MIC [4] of 104 µM (≈ 32 µg/mL).
`C/C(=N\NC(=S)Nc1ccccc1Cl)c1ccccn1` was tested, and the MIC [1] was 13.1 µM (≈ 4 µg/mL), the MIC [2] was 26.2 µM (≈ 8 µg/mL) and the MIC [3] was 13.1 µM (≈ 4 µg/mL). For the same molecule, the MIC [4] was 13.1 µM (≈ 4 µg/mL).
`O=[N+]([O-])c1ccccc1NC(=S)N/N=C(\c1ccccc1)c1ccccn1` showed an MIC [1] of 21.2 µM (≈ 8 µg/mL), an MIC [2] of 42.4 µM (≈ 16 µg/mL) and an MIC [3] of 21.2 µM (≈ 8 µg/mL). The MIC [4] was 21.2 µM (≈ 8 µg/mL).
`C/C(=N\NC(=S)Nc1ccccc1[N+](=O)[O-])c1ccccn1` was tested, and the MIC [1] was 6.34 µM (≈ 2 µg/mL), the MIC [2] was 6.34 µM (≈ 2 µg/mL) and the MIC [3] was 6.34 µM (≈ 2 µg/mL). For the same molecule, the MIC [4] was 6.34 µM (≈ 2 µg/mL).
In the case of `C/C(=N\NC(=S)Nc1ccccc1F)c1ccccn1`, the MIC [1] is reported as 6.94 µM (≈ 2 µg/mL), the MIC [2] is reported as 27.7 µM (≈ 8 µg/mL) and the MIC [3] is reported as 13.9 µM (≈ 4 µg/mL). The MIC [4] was 13.9 µM (≈ 4 µg/mL).
